# Test results reported in ChEMBL document CHEMBL1122600, “Receptor binding sites of hypoglycemic sulfonylureas and related [(acylamino)alkyl]benzoic acids” (1984).
# Test system: Rattus norvegicus
# Experiment: Effect of the compound (50 mg/kg, po) on rat blood sugar level which was given an oral glucose load (1 g/kg) 1 hr after the administration of compound
# Format: functional
row,SMILES,Change in rat blood sugar [%]
1,CCc1ccc(CCNC(=O)c2cc(Cl)ccc2OC)cc1,-4
2,C=Cc1ccc(CCNC(=O)c2cc(Cl)ccc2OC)cc1,-6
3,COc1ccc(Cl)cc1C(=O)NCCc1ccc(Cl)cc1,0
4,COc1ccc(Cl)cc1C(=O)NCCc1ccc([N+](=O)[O-])cc1,2
5,COc1ccc(Cl)cc1C(=O)NCCCCCC(=O)O,9
6,COc1ccc(Cl)cc1C(=O)NCCc1ccccc1,-7
7,COc1ccc(Cl)cc1C(=O)NCCc1ccc(C(=O)O)cc1 [MEGLITINIDE],-63
8,COc1ccc(Cl)cc1C(=O)NCCc1ccc(OCC(=O)O)cc1,-9
9,COc1ccc(Cl)cc1C(=O)NCCc1ccc(C(F)(F)F)cc1,-3
10,COc1ccc(Cl)cc1C(=O)NCCc1ccc(O)cc1,2
11,COc1ccc(Cl)cc1C(=O)NCCc1ccc(S(=O)(=O)NC(=O)NC2CCCCC2)cc1 [GLYBURIDE],-44
12,COc1ccc(Cl)cc1C(=O)NCCc1ccc(C(C)O)cc1 (stereo not given),-11
13,COc1ccc(Cl)cc1C(=O)NCCc1ccc(C(C)=O)cc1,-11
14,COc1ccc(Cl)cc1C(=O)NCCc1ccc(N)cc1,7
15,COc1ccc(Cl)cc1C(=O)NCCc1ccc(C)cc1,-55
